The values below come from patent publication US20250049823A1, “MITOCHONDRIAL ATP INHIBITORS TARGETING THE GAMMA SUBUNIT PREVENT METASTASIS” (LUNELLA BIOTECH, INC., priority 2021, published 2025).

The subject of data set [1] is MDA-MB-231 cells. Briefly: Live cell/dead cell analysis by FACS. In kind it is cell-based, human. To be noted: 1 and 10 μM. As to the method:
FIGS. 10D-10F show the results of live cell/dead cell analysis. MDA-MB-231 cells were treated with Bedaquiline (1 and 10 μM) or vehicle alone, for 48, 72 and 120 hours, and then subjected to live/dead analysis by FACS. […] However, at 72 and 120 hours (FIGS. 10E and 10F), a decrease in the live cell population and an increase in the dead cell population can be seen. […] Two-way ANOVA, Sidak's multiple comparisons test, ns=not significant, *p<0.01, **p<0.001, ***p<0.0005.
A general note: A flow cytometer gives signals particle by particle.

For data set [2], the system named is MDA-MB-231 cells. Put plainly: Cell migration assay (Transwells). In kind it is cell-based. To be noted: Homo sapiens, 32 hours then 16 hours in Transwells. As to the method: MDA-MB-231 cells were cultured in presence of Bedaquiline (10 μM) for 32 hours and moved to the Transwells for 16 hours in presence of Bedaquiline (10 μM). Unpaired t-test, **p<0.005.
Cell Migration Assays: Briefly, 3.5×10^4 cells in 0.5 ml of serum-free DMEM with 0.1% BSA were added to the wells of 8-μm pore, non-coated membrane modified Boyden chambers (Transwells). The lower chambers contained 10% fetal bovine serum in DMEM to serve as a chemo-attractant. Cells were incubated at 37° C. and allowed to migrate throughout the course of 16 hours. Noninvasive cells were removed from the upper surface of the membrane by scrubbing with cotton swabs. Chambers were stained in 0.5% crystal violet diluted in 100% methanol for 30-60 min, rinsed in water and examined under a bright-field microscope. Values for invasion and migration were obtained by counting five fields per membrane (20× objective) and represent the average of three independent experiments.

For data set [3], the system named is MDA-MB-231 cells. Briefly: Cell cycle analysis by FACS. In kind it is cell-based, human. As to the method: There is a 2-fold reduction of MDA-MB-231 cells in S-phase and a concomitant 2-fold increase in the sub-G0-G1 population, after 120 hours of treatment. Two-way ANOVA, Sidak's multiple comparisons test, ns=not significant, ***p<0.0005. FIGS. 9C and 9D show representative FACS tracings for the control and for cells treated with Bedaquiline, respectively.
FIGS. 10A-10C show cell cycle populations for MDA-MB-231 cells treated with Bedaquiline (1 and 10 μM) or vehicle alone, after 48, 72 and 120 hours, respectively. Cell cycle analysis was performed using FACS. […] However, at 72 and 120 hours, a decrease in the S-phase population and a concomitant increase in the sub-G0-G1 population can be seen in FIGS. 10B and 10C. Two-way ANOVA, Sidak's multiple comparisons test, ns=not significant, *p<0.01, **p<0.001, ***p<0.0005.
Cell Cycle Analysis by FACS: Cell-cycle analysis was performed on the ATP-high and ATP-low cell sub-populations, by FACS analysis using the Attune NxT Flow Cytometer. Briefly, after trypsinization, the re-suspended cells were incubated with propidium iodide, as per the manufacturer's recommendations (Merck Millipore, Inc.). At least 25,000 events were analyzed per condition. Gated cells were categorized into cell-cycle stages.

A further data set has as its target ATP5F1C (Homo sapiens, UniProt P36542). To be noted: 0.1, 1 and 10 μM; 24, 48, 72 and 120 hours; relative to vehicle (DMSO).
The test system of data set [4] is MDA-MB-231 cells. Put plainly: 3D anchorage-independent growth (mammosphere formation) assay. In kind it is cell-based, human. The following applies: for Mammosphere formation inhibition compared to Bedaquiline (FIG. 12): 0.5 μM to 10 μM, all concentrations tested; for Mammosphere formation inhibition at the higher concentrations (FIG. 12): higher concentrations of 0.5 μM to 10 μM range. As to the method:
One-way ANOVA, Dunnett's multiple comparisons test, **p<0.005, ***p<0.0005.
3D Anchorage Independent Growth Assay: This assay is also referred to as the mammosphere formation assay. A single-cell suspension was prepared using enzymatic, and manual disaggregation (25-g needle). Then, cells were plated at a density of 500 cells/cm^2 in mammosphere medium (DMEM-F12+1× B-27 Plus Supplement+20 ng/ml EGF+Pen/Strep) under non-adherent conditions, in culture dishes pre-coated with (2-hydroxyethylmethacrylate) (poly-HEMA, Sigma Aldrich Inc.), called “mammosphere plates.” Cells were grown for 5 days and maintained in a humidified incubator at 37° C. After 5 days of culture, 3D-mammospheres >50 μm were counted using an eye piece (“graticule”), and the percentage of cells plated which formed spheres was calculated and is referred to as percent mammosphere formation, and was normalized to one (1=100% MFE). 3D mammosphere formation efficiency (MFE) was analyzed in both the ATP-low and ATP-high sub-populations of cells. All 3D mammosphere experiments were performed in triplicate, at least 3 times independently.

For data set [5], the system named is MDA-MB-231 cells. Put plainly: 2D monolayer growth. In kind it is cell-based, human. To be noted: 10 μM, time-dependent. As to the method: (§1) FIGS. 8A and 8B show monolayer growth of MDA-MB-231 and MCF10A cells, respectively, treated with 10 μM Bedaquiline over time. […] Unpaired t-test *p<0.05, **p<0.005.
(§2) Reagents and Model Cell Lines: It should be apparent that other cell lines may be used without departing from the present approach. BioTracker ATP-Red 1 (#SCT045) was obtained commercially from Merck-Millipore, Inc. The triple-negative human breast cancer cell line, MDA-MB-231, was obtained from the American Type Culture Collection (ATCC). MCF10A cells, a non-tumorigenic human breast epithelial cell line, were also obtained from ATCC. MDA-MB-231 cells were cultured in DMEM (High Glucose) supplemented with 10% Fetal Bovine Serum (FBS, Sigma Aldrich), 2 mM Glutamax (Gibco, Life Technologies, Waltham, MA, USA), and 1% penicillin/streptomycin (Gibco, Life Technologies). The MCF10A cell line was maintained in a mammary epithelial cell growth medium (MEGM; Lonza, Basel, Switzerland) supplemented with 0.4% Bovine pituitary extract (BPE), 0.1% insulin, 0.1% hEGF, 0.1% Hydrocortisone, 0.1% GA-1000, and 100 ng/ml of cholera toxin. All cell lines were cultured at 37° C. in 5% CO2 in a humidified atmosphere.

In another data set the test system is p21. Put plainly: Western blot analysis of p21 protein expression. To be noted: 0.1, 1 and 10 μM, 120 hours. (In general: In western blotting, separated proteins are transferred to a membrane and probed.)
Data set [6] has as its system MDA-MB-231 cells. Briefly: ATP assay using BioTracker ATP-Red 1 (mitochondrial ATP levels). In kind it is cell-based. To be noted: Homo sapiens, 120 hours of treatment, read-out: Maximal inhibition of mitochondrial ATP production. As to the method: FIG. 7 compares the fold-change of BioTracker ATP-Red (signal mean) between the control and MDA-MB-231 cells treated with Bedaquiline. […] The data in FIG. 7 based on two-way ANOVA, Sidak's multiple comparisons test, *p<0.05, **p<0.005, ***p<0.0005, ****p<0.0001.
ATP assay using BioTracker ATP-Red 1: Cells were stained with BioTracker ATP-Red 1 after various treatments. After 30 minutes of incubation, the cells were washed twice with DPBS, collected and dissociated into a single-cell suspension with a 40 μm cell strainer. The cells were analyzed using the Attune NxT Flow Cytometer. Means of the signal (at 570 nm) were compared.

The test system of a further data set is PARP. Put plainly: Western blot analysis of PARP protein expression. The following applies: 0.1, 1 and 10 μM, 120 hours.
The subject of data set [7] is MDA-MB-231 cells. Put plainly: CAM assay: tumor growth and spontaneous metastasis. In kind it is in vivo, chicken. To be noted: daily for 8 days. As to the method:
(§3) Next, to test in vivo activity, the well-established CAM assay was used with MDA-MB-231 cells, to measure the effect of Bedaquiline effects on tumor growth, spontaneous metastasis and embryo toxicity. FIG. 11A illustrates the timeline for the CAM assay. An inoculum of 1×10^6 MDA-MB-231 cells was added onto the CAM of each egg (day E9) and then eggs were randomized into groups. On day E10, tumors were detectable and they were then treated daily for 8 days with vehicle alone (1% DMSO in PBS) or Bedaquiline. After 8 days of drug administration, on day E18, all tumors were weighed, and the lower CAM was collected to evaluate the number of metastatic cells, as analyzed by qPCR with specific primers for Human Alu sequences. Before each drug administration, treatment tolerability was evaluated by scoring the number of live and dead chicken embryos.
(§4) Tumor Growth, Metastasis and Embryo Toxicity Assays: Xenograft assays were carried out by INOVOTION (Société: 811310127), La Tronche-France. […] For tumor growth assays, at least 14 tumor samples were collected and analysed per group (N≥14). […] Genomic DNA was extracted from the CAM (commercial kit) and analyzed by qPCR with specific primers for Human Alu sequences. […] Before each administration, the treatment tolerability was evaluated by scoring the number of live and dead embryos.

Another data set relates to MCF10A cells. Put plainly: 2D monolayer growth, non-tumorigenic control cells. In kind it is cell-based. To be noted: 10 μM, normal control human mammary epithelial cell line. As to the method:
as §1, §2

The next data set concerns chicken embryos. Put plainly: CAM assay: embryo toxicity. In kind it is in vivo. To be noted: all concentrations tested, daily for 8 days. As to the method: as §3, §4

In general, inhibition refers to the relative decrease from the control value, in per cent. For `COc1nc2ccc(Br)cc2cc1[C@@H](c1ccccc1)[C@@](O)(CCN(C)C)c1cccc2ccccc12` [Bedaquiline, (1R,2S)-1-(6-bromo-2-methoxyquinolin-3-yl)-4-(dimethylamino)-2-naphthalen-1-yl-1-phenylbutan-2-ol], in the data set on MDA-MB-231 cells [1] (72 and 120 hours), the “Apoptotic cell population (early or late)” value is given as “no increase”, the Dead cell population entry was “increase” and the Live cell population result was “decrease”. Besides, the Live/dead cell populations result in the data set with MDA-MB-231 cells [1] (48 hours) is on record as “No effects were detectable”. Besides, the inhibition at 10 µM in the data set on MDA-MB-231 cells [2] was roughly 50%. For the same compound, in the data set on MDA-MB-231 cells [3] (1 and 10 μM, 72 and 120 hours), the S-phase population result is “decrease” and the sub-G0-G1 population entry is “increase”. Besides, in the data set on MDA-MB-231 cells [3] (1 and 10 μM, 48 hours), the Cell cycle populations entry is on record as “No effects were detectable”. In the data set with MDA-MB-231 cells [3] (after 120 hours of treatment), the “Increase in the sub-G0-G1 population” value was found to be 2 fold and the “Reduction of cells in S-phase” value worked out at 2 fold. Further, the ATP5F1C protein expression result at ATP5F1C is recorded as “down-regulated”. The inhibition at 10 µM with MDA-MB-231 cells [4] (Homo sapiens, MDA-MB-231, 10 μM) is roughly 65%. Also, the 2D monolayer growth entry with MDA-MB-231 cells [5] was “effectively inhibits 2D growth”. Further, the p21 protein expression result in the data set on p21 is “decreased in a concentration-dependent manner”. Besides, in the data set on MDA-MB-231 cells [6], the inhibition at 10 µM was 75%. For the same compound, the PARP protein expression entry in the data set on PARP is reported as “decreased in a concentration-dependent manner”. Also, in the data set with MDA-MB-231 cells [7] (120 μM treatment, qPCR Human Alu in lower CAM), the “Inhibition of spontaneous metastasis” value was found to be 84%. Also, the “Effect on tumor growth (average tumor weight)” value in the data set with MDA-MB-231 cells [7] (day E18) is “no statistically significant effect”. Further, the 2D monolayer growth result in the data set with MCF10A cells was “No effect was observed”. In addition, the “Toxicity for chick embryos (egg survival)” value in the data set on chicken embryos is reported as “not toxic”.
Turning to `COc1nc2ccc(CCCCOC(=O)CCCCCCCCCCC[P+](c3ccccc3)(c3ccccc3)c3ccccc3)cc2cc1[C@@H](c1ccccc1)[C@@](O)(CCN(C)C)c1cccc2ccccc12.[Br-]` [structure [2B]], in the data set on MDA-MB-231 cells [4], the “Mammosphere formation inhibition compared to Bedaquiline (FIG. 12)” value is recorded as “more potent than unconjugated Bedaquiline” and the “Mammosphere formation inhibition at the higher concentrations (FIG. 12)” value is on record as “exceptional mammosphere formation inhibition”.
For `COc1nc2ccc(CCCCOC(=O)CCCCC[P+](c3ccccc3)(c3ccccc3)c3ccccc3)cc2cc1[C@@H](c1ccccc1)[C@@](O)(CCN(C)C)c1cccc2ccccc12.[Cl-]` [structure [3B], [6-[4-[3-[(1R,2S)-4-(dimethylamino)-2-hydroxy-2-(1-naphthyl)-1-phenyl-butyl]-2-methoxy-6-quinolyl]butoxy]-6-oxo-hexyl]-triphenyl-phosphonium; chloride] the same measures were “more potent than unconjugated Bedaquiline” and “exceptional mammosphere formation inhibition”.
